# Test results published in patent publication US20140066385A1, “METHOD FOR TREATING CANCER BY COMBINED USE OF DRUGS” (Astellas Pharma Inc., priority 2011, published 2014).
# System: Human lung cancer-derived Calu 6 (HTB-56)
# Test: Example 1: anti-tumor effect of FK330 alone or combined with chemotherapeutic agents in Calu-6 tumor-bearing nude mice
# Format: in vivo
# Description: A free-form dihydrate of FK330 was used. Hereinafter, the amount of FK330 administered is expressed in weight of the dihydrate. A docetaxel hydrate injectable preparation (Taxotere (trademark), for intravenous infusion) was purchased from Sanofi-Aventis SA, and was used as docetaxel. A paclitaxel injectable preparation (paclitaxel injection liquid “Sawai”) was purchased from Sawai Pharmaceutical Co., Ltd., and was used as paclitaxel. Irinotecan hydrochloride (Topotesin (trade name) injection) was purchased from Daiichi Sankyo Co., Ltd., and was used as irinotecan. Gemcitabine hydrochloride for injection (Gemzar (trade name) injection) was purchased from Eli Lilly Japan K.K., and was used as gemcitabine. Doxorubicin hydrochloride for injection (Adriacin (trade name) Injection 10) was purchased from Kyowa Hakko Kogyo Co., Ltd., and was used as doxorubicin. A carboplatin injection liquid (Paraplatin (trade name) injection liquid) was purchased from Bristol Myers Squibb Co., and was used as carboplatin.
# FK330 was suspended (20 mg/mL) in a 0.5% aqueous methyl cellulose solution (0.5% MC). Docetaxel was prepared in the attached dissolution liquid at 4 mg/mL, and was diluted with physiological saline (Otsuka Pharmaceutical Group) to 1 mg/mL. Paclitaxel, irinotecan, gemcitabine, doxorubicin, and carboplatin were prepared with physiological saline for injection at the time of use at concentrations of 1 mg/mL, 3 mg/mL, 16 mg/mL, 1 mg/mL, and 6 mg/mL, respectively.
# Human lung cancer-derived Calu 6 (HTB-56) was obtained from American Type Culture Collection (VA, USA). The cells were cultured under the conditions of 37° C. and 5% CO2 by using RPMI1640 medium containing 10% heat-inactivated fetal bovine serum (FBS). The cells were harvested with trypsin and were suspended in PBS at 6×10^7 cells/mL, and the suspension was mixed with an equal amount of Matrigel (trade name) Basement Membrane Matrix (manufactured by Becton Dickinson Co., Bedford, Mass., USA).
# Five-week old male nude mice (CAnN Cg-Foxn1nu/CrlCrlj(nu/nu)) were purchased from Charles River Laboratories Japan, Inc. (Japan, Kanagawa). The animals were raised under specific pathogen-free (SPF) conditions throughout the test period by feeding standard feedstuff and drinking water. The cultured cells were subcutaneously inoculated into the dorsal region of the nude mice at a concentration of 3×10^6 cells/0.1 mL/mouse. Nude mice which had the tumor volumes (major axis×[minor axis]^2×0.52) ranging from 111.9 mm^3 to 369.3 mm^3 were assigned by using SAS to minimize the fluctuation in tumor volume between the groups and within the group.
# The first day of administration was designated as Day 1, and observation was made until Day 29. The respective groups (n=5 or 6) were treated as follows. FK330 was orally gavaged (5 mL/kg) twice a day at an interval of 6 to 8 hours, and each of the chemotherapeutic agents was administered by intravenous bolus injection (10 mL/kg) through the tail vein.
# FK330 single administration group: 100 mg/kg of FK330 was administered twice a day (bid) (200 mg/kg/day, administered every day from the initiation of experiment to the completion)
# Docetaxel single administration group: Docetaxel 10 mg/kg/day (Day 1, 5 and 9)
# Paclitaxel single administration group: Paclitaxel 10 mg/kg/day (Day 1 through 7)
# Irinotecan single administration group: lrinotecan 30 mg/kg/day (Day 1 through 7)
# Gemcitabine single administration group: Gemcitabine 160 mg/kg/day (Day 1, 4 and 7)
# Doxorubicin single administration group: Doxorubicin 10 mg/kg/day (Day 1 and 8)
# Carboplatin single administration group: Carboplatin 60 mg/kg/day (Day 1 and 2)
# FK330 100 mg/kg bid+Docetaxel 10 mg/kg/day (Day 1, 5 and 9), n=6
# FK330 100 mg/kg bid+Paclitaxel 10 mg/kg/day (Day 1 through 7), n=6
# FK330 100 mg/kg bid+Irinotecan 30 mg/kg/day (Day 1 through 7), n=6
# FK330 100 mg/kg bid+Gemcitabine 160 mg/kg/day (Day 1, 4 and 7), n=6
# FK330 100 mg/kg bid+Doxorubicin 10 mg/kg/day (Day 1 and 8), n=6 […]
compound,measurement,setting,value
"O=C(/C=C/c1ccc(Cl)cc1)N[C@@H](Cc1ccccn1)C(=O)NCC(=O)N1CCC(Oc2cc(C(F)(F)F)ncn2)CC1 [FK330, N^2-[(2E)-3-(4-chlorophenyl)-2-propenoyl]-N-[2-oxo-2-(4-{[6-(trifluoromethyl)pyrimidin-4-yl]oxy}piperidin-1-yl)ethyl]-3-pyridin-2-yl-L-alaninamide]",tumor volume reduction ratio compared with docetaxel-only group,"Day 29, FK330 100 mg/kg bid p.o. + docetaxel 10 mg/kg/day i.v. (Day 1, 5 and 9), significant",63.5%
same,tumor volume reduction ratio compared with doxorubicin-only group,"Day 29, FK330 100 mg/kg bid p.o. + doxorubicin 10 mg/kg/day i.v. (Day 1 and 8), not significant",33.5%
same,tumor volume reduction ratio compared with irinotecan-only group,"Day 29, FK330 100 mg/kg bid p.o. + irinotecan 30 mg/kg/day i.v. (Day 1 through 7), not significant",30.8%
same,tumor volume reduction ratio compared with paclitaxel-only group,"Day 29, FK330 100 mg/kg bid p.o. + paclitaxel 10 mg/kg/day i.v. (Day 1 through 7), significant",57.6%
same,effect of FK330 on the anti-tumor effect of carboplatin,FK330 100 mg/kg bid p.o. + carboplatin 60 mg/kg/day i.v. (Day 1 and 2),did not affect
same,effect of FK330 on the anti-tumor effect of gemcitabine,"FK330 100 mg/kg bid p.o. + gemcitabine 160 mg/kg/day i.v. (Day 1, 4 and 7)",did not affect
same,anti-tumor effect when FK330 was used alone,"FK330 100 mg/kg bid p.o. alone, every day, observation until Day 29",not recognized
